Measured values reported in patent US9481885B2, “Methods and compositions related to miR-21 and miR-29a, exosome inhibition, and cancer metastasis” (Ohio State Innovation Foundation, priority 2011, dated 2016).

Key:
spleen cells = assay: Flow-cytometric analysis of CD69 in spleen cells of WT and TLR7−/− mice; format: cell-based, mouse; settings: cytofluorimetry
Protocol: (§1) Experiments were performed to determine whether the miRNA-TLR interaction is functional, and assessed whether the miRNAs of interest induce the secretion of cytokines such as TNF-α and IL-6, whose production is increased by TLR activation. We isolated peritoneal macrophages from WT and TLR7^−/− B6 mice. Cells were treated with Dotap alone or with Dotap formulations of miR-16, -21, -29a, and -147, and an ELISA for TNF-α and IL-6 was performed. In the functional assays, included also were miR-147 and -574-5p, because they have a mature viral-derived sequence that induces cytokine production through the activation of TLR8 and TLR7, similar to that of RNA33 (FIG. 14A). […] We also treated spleen cells from WT and TLR7^−/− mice with the same miRNAs and assessed expression of CD69, an early activation marker of cells which has a role in inflammation and proliferation and which also is activated by TLR3. Polyinosinic:polycytidylic acid [poly (I:C)], a known agonist of TLR3, served as positive control.
Total splenocytes derived from WT and TLR7^−/− age- and sex-matched mice were prepared by harvesting the spleen and preparing a single-cell suspension. Red blood cells were eliminated by osmotic lysis using red blood cell lysis buffer (eBioscience). […] Cells were stained with phycoerythrin-conjugated anti-CD69 (BioLegend) antibody and analyzed using FACSCalibur flow cytometer (Becton Dickinson).

peritoneal macrophages = assay: ELISA for TNF-α and IL-6 on peritoneal macrophages from WT and TLR7−/− mice; format: cell-based, mouse; settings: Dotap formulations of miRNA
Protocol: as §1
For all experiments, cells were treated with 15 μg of HPLC-purified synthetic miRNAs (Integrated DNA Technologies) complexed with Dotap Liposomal Transfection Reagent (Roche) as previously described.
Macrophages derived from the peritoneal cavity were isolated from WT and TLR7^−/− age- and sex-matched mice.
PBMC were isolated from heparinized blood of healthy donors by Ficoll-Paque (Pharmacia) centrifugation (500×g) following the manufacturer's instructions and were plated immediately for stimulation. Human PBMCs or murine peritoneal macrophages (300,000 cells) were stimulated with synthetic miRNAs for 24 h; then ELISAs for TNF-α and IL-6 were performed on the conditioned media using Multi-Analyte ELISArray Kits (SABiosciences) following the manufacturer's instructions.

[1] = system: human peripheral blood mononuclear cells (PBMCs); assay: ELISA for TNF-α and IL-6 on human PBMCs; format: cell-based; settings: human PBMCs from two healthy donors, Dotap formulations
Protocol: To investigate whether miRNA-induced activation of TLRs also occurs in human cells, an NF-κB reporter assay was performed in HEK-293 cells. NF-κB, a transcription factor modulating the expression of several cytokine genes, is activated by several TLRs, including the only ssRNA-binding human TLRs, TLR7 and TLR8. Therefore, we treated HEK-293 cells expressing human TLR7 or TLR8 (hereafter, TLR7- and TLR8-HEK-293 cells, respectively) with Dotap alone or with Dotap formulations of miR-16, -21, -29a, or -147 and performed an NF-κB reporter assay. As positive controls Gardiquimod and ssRNA40 were used, specific agonists of TLR7 and TLR8, respectively. […] To confirm this conclusion, transfected were TLR8-HEK-293 cells with a plasmid encoding a dominant negative form of TLR8 (TLR8DN) and treated these cells with the miRNAs of interest. In TLR8DN cells, the activation of NF-κB by miR-21 and miR-29a was abolished (FIG. 3F). Also, incubated were TLR7- and TLR8-expressing human peripheral blood mononuclear cells (PBMCs) from two healthy donors with Dotap alone or Dotap formulations of miR-16, -21, -27b, -29a, -147, -574-5p, or ssRNA40 and an ELISA was performed for TNF-α and IL-6. With the exception of PBMCs treated with Dotap alone and with Dotap-miR-16, each of the other miRNAs and ssRNA40 induced the production of TNF-α and IL-6 (FIGS. 3G-3J). […]

[2] = peritoneal macrophages of TLR7−/− B6 mice
[3] = peritoneal macrophages of WT B6 mice

Q: What does the source list for “miR-147: synthetic mature miRNA (SEQ ID NO: 3), sequence similar to RNA33, Dotap formulation (GUGUGUGGAAAUGCUUCUGC; DOTAP formulation, further chemistry not given here)”?
A: CD69 activation (spleen cells; spleen cells from TLR7−/− mice): not; CD69 activation (spleen cells; spleen cells from WT mice): induced; IL-6 production (peritoneal macrophages; [2]): not; TNF-α production (peritoneal macrophages; [2]): not; IL-6 production (peritoneal macrophages; [3]): increased; TNF-α production (peritoneal macrophages; [3]): increased; production of IL-6 [1]: induced; production of TNF-α [1]: induced
